From PMC9180926, “Discovery of Novel 3-Hydroxyquinazoline-2,4(1H,3H)-Dione Derivatives: A Series of Metal Ion Chelators with Potent Anti-HCV Activities” (International Journal of Molecular Sciences, 2022)

Legend:
[1] = tested on: HCV 1b replicon cells (Huh-7.5.1); test: Anti-HCV assay, HCV 1b replicon cells with luciferase reporter; format: cell-based, hepatitis C virus (HCV) subtype 1b; conditions: Hepatitis C virus, Huh-7.5.1, 72 h, inhibitory rate at 5 μM
[2] = tested on: HCV 1b replicon cells (Huh-7.5.1); test: as above; format: cell-based, hepatitis C virus (HCV) subtype 1b; conditions: Hepatitis C virus, HCV 1b replicon cells

Compound: O=c1[nH]c2cc(-c3ccccc3)ccc2c(=O)n1O [21e, 3-Hydroxy-7-phenylquinazoline-2,4(1H,3H)-dione]
- inhibition at 5 µM [1]: 39.5%
- EC50 ([2]; Huh-7.5.1, 50% effective concentration, mean ± SD): 3.2 ± 0.04 µM
- inhibition at 10 µM ([2]; Huh-7.5.1, 72 h, inhibitory rate at 10 μM, 72 h, read-out: HCV Inhibition 10 μM): 78.1%
